This experiment has as its target T1, HIV-1 protease (Human immunodeficiency virus type 1 group M subtype B, UniProt P04585).
T1 construct: The protease (or proteinase), consisting of only 99 amino acids, is among the smallest enzymes known
Briefly: In vitro HIV protease inhibitory assay (HIV Protease FITC Assay). It counts as biochemical. The conditions noted are these: for inhibition at 0.41 µM: HIV-1 Dose 0.410 uM; for inhibition at 0.41 µM / inhibition at 1.23 µM / inhibition at 3.7 µM / inhibition at 11 µM / inhibition at 33 µM / inhibition at 100 µM / inhibition at 0.123 µM / inhibition at 0.37 µM / inhibition at 1.1 µM / inhibition at 3.3 µM / inhibition at 10 µM / inhibition at 30 µM: read-out: HIV-1 Protease % Inhib; for inhibition at 1.23 µM: HIV-1 Dose 1.230 uM; for inhibition at 3.7 µM: HIV-1 Dose 3.700 uM; for inhibition at 11 µM: HIV-1 Dose 11.000 uM; for inhibition at 33 µM: HIV-1 Dose 33.000 uM; for inhibition at 100 µM: HIV-1 Dose 100.000 uM; for Ki: read-out: HIV-1 FITC Ki; for inhibition at 0.123 µM: HIV-1 Dose 0.123 uM; for inhibition at 0.37 µM: HIV-1 Dose 0.370 uM; for inhibition at 1.1 µM: HIV-1 Dose 1.100 uM; for inhibition at 3.3 µM: HIV-1 Dose 3.300 uM; for inhibition at 10 µM: HIV-1 Dose 10.000 uM; for inhibition at 30 µM: HIV-1 Dose 30.000 uM. In outline:
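Biotin/FITC-labelled peptide substrate cleaved by HIV-1 protease for 1 h at room temperature in the dark, in 0.1 M sodium acetate pH 5.5, 1.0 M NaCl, 0.05% NP-40. Uncleaved substrate captured on avidin beads and separated by filtration; fluorescence gave % inhibition.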

As to `CCC(Cc1ccccc1)c1oc(=O)c(C(CC)c2ccccc2)c(O)c1Br` (stereo not shown) [Example 111, 6-(1-Benzyl-propyl)-5-bromo-4-hydroxy-3-(1-phenyl-propyl)-pyran-2-one], the inhibition at 0.41 µM came out at 41.7%, the inhibition at 1.23 µM stood at 66.2%, the inhibition at 3.7 µM is 92.2% and the inhibition at 11 µM amounted to 103%. For the same compound, the inhibition at 33 µM is 102%; the inhibition at 100 µM was determined as 109%; the Ki (commonly a dissociation constant, usually derived from enzyme kinetics or from competition with a known ligand) stood at 255 nM.
As for `COCCOCCOCCc1c(C(CC2CC2)CC2CC2)oc(=O)c(C(c2ccccc2)C2CC2)c1O` (stereo not shown) [Example 112], the inhibition at 0.41 µM is less than 10%, the inhibition at 1.23 µM was less than 10%, the inhibition at 3.7 µM was 10.4% and the inhibition at 11 µM came out at 18.9%. Also, the inhibition at 33 µM is 37.1% and the inhibition at 100 µM came out at 46.5%.
Turning to `C=CC(C1=C(O)CC2(CCC3(CC2)OCCO3)OC1=O)c1ccccc1` (stereo not shown) [Example 113, 12-Hydroxy-11-(1-phenyl-allyl)-1,4,9-trioxa-dispiro[4.2.5.2]pentadec-11-en-10-one], the inhibition at 0.41 µM was less than 10%, the inhibition at 1.23 µM turned out to be 15.3%, the inhibition at 3.7 µM stood at 42.8% and the inhibition at 11 µM came to 79.7%. Moreover, the inhibition at 33 µM came to 101%, the inhibition at 100 µM turned out to be 107% and the Ki came to 2560 nM.
Consider `CCC(C1=C(O)CC2(CCC3(CC2)OCCO3)OC1=O)c1ccccc1` (stereo not shown) [Example 114, 12-Hydroxy-11-(1-phenyl-propyl)-1,4,9-trioxa-dispiro[4.2.5.2]pentadec-11-en-10-one], for which the inhibition at 0.41 µM is less than 10%, the inhibition at 1.23 µM was less than 10%, the inhibition at 3.7 µM was determined as 25.8% and the inhibition at 11 µM was 63.5%. The inhibition at 33 µM was determined as 67.5%, the inhibition at 100 µM turned out to be 55.4% and the Ki was determined as 4290 nM.
As to `CCC(C1=C(O)CC2(CCC(=O)CC2)OC1=O)c1ccccc1` (stereo not shown) [Example 115, 4-Hydroxy-3-(1-phenyl-propyl)-1-oxa-spiro[5.5]undec-3-ene-2,9-dione], the inhibition at 0.41 µM was less than 10%, the inhibition at 1.23 µM was found to be 27.1%, the inhibition at 3.7 µM worked out at 56.9% and the inhibition at 11 µM was found to be 91.5%. For the same compound, the inhibition at 33 µM is 103%, the inhibition at 100 µM was determined as 94.8% and the inhibition constant (Ki) stood at 1160 nM.
In the case of `CCC(C1=C(O)CC2(CCC(O)CC2)OC1=O)c1ccccc1` (stereo not shown) [Example 116, 4,9-Dihydroxy-3-(1-phenyl-propyl)-1-oxa-spiro[5.5]undec-3-en-2-one], the inhibition at 0.123 µM was less than 10%, the inhibition at 0.37 µM was less than 10%, the inhibition at 1.1 µM is less than 10% and the inhibition at 3.3 µM was 31.1%. The inhibition at 10 µM worked out at 62% and the inhibition at 30 µM came to 89.9%.
Turning to `O=c1oc(CC(O)c2ccco2)cc(O)c1C(c1ccccc1)C1CC1` (stereo not shown) [Example 117, 3-(Cyclopropyl-phenyl-methyl)-6-(2-furan-2-yl-2-hydroxy-ethyl)-4-hydroxy-pyran-2], the inhibition at 0.123 µM was less than 10%, the inhibition at 0.37 µM was less than 10%, the inhibition at 1.1 µM was found to be 17% and the inhibition at 3.3 µM was determined as 51.2%. Further, the inhibition at 10 µM worked out at 87% and the inhibition at 30 µM was 101%.
In the case of `O=c1oc(CCCC(F)(F)F)cc(O)c1C(c1ccccc1)C1CC1` (stereo not shown) [Example 118, 3-(Cyclopropyl-phenyl-methyl)-4-hydroxy-6-(4,4,4-trifluoro-butyl)-pyran-2-one], the inhibition at 0.123 µM was less than 10%, the inhibition at 0.37 µM was less than 10%, the inhibition at 1.1 µM is 20% and the inhibition at 3.3 µM was 52.4%. For the same compound, the inhibition at 10 µM was found to be 83.9% and the inhibition at 30 µM was found to be 102%.

The values are drawn from patent EP1203770A1 (priority 1992, dated 1994).
